According to ChEMBL document CHEMBL1201862, “PubChem BioAssay data set” (2004):
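Each compound was tested at five concentrations against cells in 96-well plates for 48 hours. Here, GI50 denotes the concentration required for 50% inhibition of growth.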 Activity calls are given as the source filed them. Rule as the data show it: active = GI50 up to about 1.1 µM and inactive = higher.

Key:
Experiment in all cases: NCI-60 cell line screen, 48 h
SNB-19 = test system: SNB-19
CAKI-1 = test system: CAKI-1
RPMI-8226 = test system: RPMI-8226
NCI-H226 = test system: NCI-H226
RXF 393 = test system: RXF 393
MOLT-4 = test system: MOLT-4
HOP-62 = test system: HOP-62
786-0 = test system: 786-0
HCT-116 = test system: HCT-116
SK-MEL-2 = test system: SK-MEL-2
OVCAR-4 = test system: OVCAR-4
MDA-MB-435 = test system: MDA-MB-435
U-251 = test system: U-251
SK-MEL-5 = test system: SK-MEL-5
K562 = test system: K562
A498 = test system: A498
MDA-N = test system: MDA-N
SK-OV-3 = test system: SK-OV-3
SF-539 = test system: SF-539
CCRF-CEM = test system: CCRF-CEM

| SMILES | GI50 (SNB-19) | GI50 (CAKI-1) | GI50 (RPMI-8226) | GI50 (NCI-H226) | GI50 (RXF 393) | GI50 (MOLT-4) | GI50 (HOP-62) | GI50 (786-0) | GI50 (HCT-116) | GI50 (SK-MEL-2) | GI50 (OVCAR-4) | GI50 (MDA-MB-435) | GI50 (U-251) | GI50 (SK-MEL-5) | GI50 (K562) | GI50 (A498) | GI50 (MDA-N) | GI50 (SK-OV-3) | GI50 (SF-539) | GI50 (CCRF-CEM) |
| --- | --- | --- | --- | --- | --- | --- | --- | --- | --- | --- | --- | --- | --- | --- | --- | --- | --- | --- | --- | --- |
| O=C1NC(=S)N/C1=C\c1cc2c(=O)c3ccccc3sc2s1 | 33.4 µM (inactive) | > 100 µM (inactive) | 25.6 µM (inactive) | > 100 µM (inactive) | 68.1 µM (inactive) | 23.5 µM (inactive) | 32.5 µM (inactive) | 40.2 µM (inactive) | 36.4 µM (inactive) | > 100 µM (inactive) | 76 µM (inactive) | > 100 µM (inactive) | 30.7 µM (inactive) | > 100 µM (inactive) | 29.9 µM (inactive) | > 100 µM (inactive) | 87.7 µM (inactive) | – | – | – |
| NC(=O)Cc1ncn(-c2ccccc2)n1 | > 100 µM (inactive) | > 100 µM (inactive) | > 100 µM (inactive) | > 100 µM (inactive) | > 100 µM (inactive) | > 100 µM (inactive) | > 100 µM (inactive) | > 100 µM (inactive) | > 100 µM (inactive) | > 100 µM (inactive) | – | > 100 µM (inactive) | – | > 100 µM (inactive) | > 100 µM (inactive) | > 100 µM (inactive) | > 100 µM (inactive) | > 100 µM (inactive) | > 100 µM (inactive) | > 100 µM (inactive) |
| C(=N\CCCN1CCN(CCC/N=C/c2cccc3ccccc23)CC1)/c1cccc2ccccc12 | 60.7 µM (inactive) | > 100 µM (inactive) | 36 µM (inactive) | 48.6 µM (inactive) | 10.8 µM (inactive) | 39.4 µM (inactive) | > 100 µM (inactive) | > 100 µM (inactive) | 27.7 µM (inactive) | > 100 µM (inactive) | > 100 µM (inactive) | 14.5 µM (inactive) | 36.2 µM (inactive) | > 10 µM (inactive) | 26.4 µM (inactive) | – | 20 µM (inactive) | > 100 µM (inactive) | > 100 µM (inactive) | 52.7 µM (inactive) |
| C#CC(O)/C=C/CCCCCCC#CC/C=C\CC#CCCCCCCCCC(O)C#C (stereo not given) | 20 µM (inactive) | 4.29 µM (inactive) | – | 15.6 µM (inactive) | 14.6 µM (inactive) | 0.27 µM (active) | 4.27 µM (inactive) | 2.08 µM (inactive) | 2.28 µM (inactive) | 2.59 µM (inactive) | 4.19 µM (inactive) | 2.53 µM (inactive) | 20.5 µM (inactive) | 2.68 µM (inactive) | 3.14 µM (inactive) | 12.6 µM (inactive) | 1.99 µM (inactive) | 17.6 µM (inactive) | 20.8 µM (inactive) | 0.0836 µM (active) |
| CCN1C(=O)C(=C/C=C/c2ccc(N(CC)CC)cc2)C(=O)N(CC)C1=S | > 100 µM (inactive) | > 100 µM (inactive) | > 100 µM (inactive) | 93.3 µM (inactive) | > 100 µM (inactive) | 33.9 µM (inactive) | 21.7 µM (inactive) | > 100 µM (inactive) | > 100 µM (inactive) | 68.5 µM (inactive) | > 100 µM (inactive) | 86.9 µM (inactive) | > 100 µM (inactive) | > 100 µM (inactive) | 83.9 µM (inactive) | – | 74.8 µM (inactive) | > 100 µM (inactive) | 72.1 µM (inactive) | 32.4 µM (inactive) |
| CC(=O)NC1C(OCc2ccccc2)OC(CO)C(O)C1OCC(=O)NC(C)C(=O)NC(CCC(=O)NCCCCNc1ccc([N+](=O)[O-])c2[nH]c3ccccc3c(=O)c12)C(N)=O (stereo not given) | 36.7 µM (inactive) | > 100 µM (inactive) | – | 66.1 µM (inactive) | – | – | > 100 µM (inactive) | 42.9 µM (inactive) | 63.7 µM (inactive) | > 100 µM (inactive) | 40.5 µM (inactive) | > 100 µM (inactive) | 79.1 µM (inactive) | – | > 100 µM (inactive) | > 100 µM (inactive) | > 100 µM (inactive) | > 100 µM (inactive) | 49.3 µM (inactive) | – |
| Cc1ccc(NC(=O)C(=O)CC(=O)c2sc(Nc3c(C)cccc3C)nc2C)cc1C | > 100 µM (inactive) | > 100 µM (inactive) | > 100 µM (inactive) | > 100 µM (inactive) | > 100 µM (inactive) | > 100 µM (inactive) | > 100 µM (inactive) | > 100 µM (inactive) | > 100 µM (inactive) | > 100 µM (inactive) | > 100 µM (inactive) | > 100 µM (inactive) | > 100 µM (inactive) | > 100 µM (inactive) | > 100 µM (inactive) | – | > 100 µM (inactive) | > 100 µM (inactive) | > 100 µM (inactive) | > 100 µM (inactive) |
| CC(=O)Nc1ccc(CNc2cc(=O)[nH]c(=O)[nH]2)cc1 | > 100 µM (inactive) | > 100 µM (inactive) | > 100 µM (inactive) | > 100 µM (inactive) | > 100 µM (inactive) | > 100 µM (inactive) | > 100 µM (inactive) | > 100 µM (inactive) | > 100 µM (inactive) | > 100 µM (inactive) | > 100 µM (inactive) | > 100 µM (inactive) | > 100 µM (inactive) | > 100 µM (inactive) | > 100 µM (inactive) | – | > 100 µM (inactive) | > 100 µM (inactive) | > 100 µM (inactive) | > 100 µM (inactive) |
| COC(=O)C1CCC(=O)N1C(c1ccc2c(c1)OCO2)c1ccc2c(c1)OCO2 (stereo not given) | > 100 µM (inactive) | > 100 µM (inactive) | > 100 µM (inactive) | > 100 µM (inactive) | – | > 100 µM (inactive) | > 100 µM (inactive) | > 100 µM (inactive) | > 100 µM (inactive) | > 100 µM (inactive) | > 100 µM (inactive) | > 100 µM (inactive) | > 100 µM (inactive) | > 100 µM (inactive) | > 100 µM (inactive) | > 100 µM (inactive) | > 100 µM (inactive) | > 100 µM (inactive) | > 100 µM (inactive) | > 100 µM (inactive) |
| Cc1nc(O)c2ncn(CCO)c2n1 | > 100 µM (inactive) | > 100 µM (inactive) | – | > 100 µM (inactive) | > 100 µM (inactive) | – | > 100 µM (inactive) | > 100 µM (inactive) | > 100 µM (inactive) | – | > 100 µM (inactive) | > 100 µM (inactive) | > 100 µM (inactive) | > 100 µM (inactive) | > 100 µM (inactive) | > 100 µM (inactive) | > 100 µM (inactive) | > 100 µM (inactive) | > 100 µM (inactive) | > 100 µM (inactive) |
| c1ccc(C2=C(c3ccccc3)P(c3ccccc3)C2)cc1 (stereo not given) | – | > 100 µM (inactive) | – | 53.2 µM (inactive) | > 100 µM (inactive) | 22.1 µM (inactive) | > 100 µM (inactive) | > 100 µM (inactive) | 83.4 µM (inactive) | > 100 µM (inactive) | > 100 µM (inactive) | 57.4 µM (inactive) | 68.1 µM (inactive) | – | – | > 100 µM (inactive) | > 100 µM (inactive) | > 100 µM (inactive) | > 100 µM (inactive) | 22.5 µM (inactive) |
| COc1cc(C2c3cccc4cccc(c34)C3CCC(=O)N32)cc(O)c1O (stereo not given) | > 50 µM (inactive) | – | 11.5 µM (inactive) | > 50 µM (inactive) | > 50 µM (inactive) | 12.7 µM (inactive) | 47.1 µM (inactive) | 44.2 µM (inactive) | 20.7 µM (inactive) | > 50 µM (inactive) | 12.7 µM (inactive) | 19.2 µM (inactive) | 19 µM (inactive) | – | 10.8 µM (inactive) | > 50 µM (inactive) | 22.3 µM (inactive) | > 50 µM (inactive) | 20.9 µM (inactive) | 10.9 µM (inactive) |
| CN(Cc1cnc2nc(N)nc(N)c2n1)c1ccc(C(=O)NCS(=O)(=O)O)cc1 | > 100 µM (inactive) | – | > 100 µM (inactive) | > 100 µM (inactive) | – | 68.2 µM (inactive) | > 100 µM (inactive) | 59.3 µM (inactive) | 43.3 µM (inactive) | > 100 µM (inactive) | > 100 µM (inactive) | 91.2 µM (inactive) | > 100 µM (inactive) | > 100 µM (inactive) | > 100 µM (inactive) | > 100 µM (inactive) | 63.1 µM (inactive) | > 100 µM (inactive) | 85.7 µM (inactive) | – |
| Cc1onc(-c2c(F)cccc2Cl)c1C(=O)N[C@@H]1C(=O)N2[C@@H]1SC(C)(C)[C@@H]2C(=O)O | > 100 µM (inactive) | > 100 µM (inactive) | > 100 µM (inactive) | > 100 µM (inactive) | > 100 µM (inactive) | – | > 100 µM (inactive) | > 100 µM (inactive) | > 100 µM (inactive) | > 100 µM (inactive) | > 100 µM (inactive) | > 100 µM (inactive) | > 100 µM (inactive) | > 100 µM (inactive) | > 100 µM (inactive) | > 100 µM (inactive) | > 100 µM (inactive) | > 100 µM (inactive) | > 100 µM (inactive) | – |
| COc1c(CC=C(C)C)c(O)c(C(CC(C)C)c2c(O)c(C(C)=O)c(O)c3c2OC(C(C)(C)O)C3)c(O)c1C(C)=O (stereo not given) [ACROFOLIONE A] | 7.33 µM (inactive) | 3.59 µM (inactive) | – | 5.69 µM (inactive) | 2.88 µM (inactive) | 3.4 µM (inactive) | – | 4.89 µM (inactive) | 3.68 µM (inactive) | – | 5.68 µM (inactive) | 4.86 µM (inactive) | – | 3.41 µM (inactive) | 2.13 µM (inactive) | 3.83 µM (inactive) | 4.29 µM (inactive) | – | 4.93 µM (inactive) | 5.36 µM (inactive) |
